Data from paper PMC9551036, “A selective and orally bioavailable VHL-recruiting PROTAC achieves SMARCA2 degradation in vivo” (Nature Communications, 2022).
“And” between values parts separate entries of the source, which are not always exact repeats. Identical values can stand only once. “Also recorded” adds a separate entry of the source.

Tests used:
[1] = target: SMARCA2 (Homo sapiens, UniProt P51531); experiment: SMARCA2 IHC in NCI-H1568 xenograft tumours; assay type: in vivo, mouse; parameters: from tissue; host or cells: subcutaneous NCI-H1568 or A549 xenograft tumours in BomTac:NMRI-Foxn1nu mice
Sequence of SMARCA2 (P51531 whole entry): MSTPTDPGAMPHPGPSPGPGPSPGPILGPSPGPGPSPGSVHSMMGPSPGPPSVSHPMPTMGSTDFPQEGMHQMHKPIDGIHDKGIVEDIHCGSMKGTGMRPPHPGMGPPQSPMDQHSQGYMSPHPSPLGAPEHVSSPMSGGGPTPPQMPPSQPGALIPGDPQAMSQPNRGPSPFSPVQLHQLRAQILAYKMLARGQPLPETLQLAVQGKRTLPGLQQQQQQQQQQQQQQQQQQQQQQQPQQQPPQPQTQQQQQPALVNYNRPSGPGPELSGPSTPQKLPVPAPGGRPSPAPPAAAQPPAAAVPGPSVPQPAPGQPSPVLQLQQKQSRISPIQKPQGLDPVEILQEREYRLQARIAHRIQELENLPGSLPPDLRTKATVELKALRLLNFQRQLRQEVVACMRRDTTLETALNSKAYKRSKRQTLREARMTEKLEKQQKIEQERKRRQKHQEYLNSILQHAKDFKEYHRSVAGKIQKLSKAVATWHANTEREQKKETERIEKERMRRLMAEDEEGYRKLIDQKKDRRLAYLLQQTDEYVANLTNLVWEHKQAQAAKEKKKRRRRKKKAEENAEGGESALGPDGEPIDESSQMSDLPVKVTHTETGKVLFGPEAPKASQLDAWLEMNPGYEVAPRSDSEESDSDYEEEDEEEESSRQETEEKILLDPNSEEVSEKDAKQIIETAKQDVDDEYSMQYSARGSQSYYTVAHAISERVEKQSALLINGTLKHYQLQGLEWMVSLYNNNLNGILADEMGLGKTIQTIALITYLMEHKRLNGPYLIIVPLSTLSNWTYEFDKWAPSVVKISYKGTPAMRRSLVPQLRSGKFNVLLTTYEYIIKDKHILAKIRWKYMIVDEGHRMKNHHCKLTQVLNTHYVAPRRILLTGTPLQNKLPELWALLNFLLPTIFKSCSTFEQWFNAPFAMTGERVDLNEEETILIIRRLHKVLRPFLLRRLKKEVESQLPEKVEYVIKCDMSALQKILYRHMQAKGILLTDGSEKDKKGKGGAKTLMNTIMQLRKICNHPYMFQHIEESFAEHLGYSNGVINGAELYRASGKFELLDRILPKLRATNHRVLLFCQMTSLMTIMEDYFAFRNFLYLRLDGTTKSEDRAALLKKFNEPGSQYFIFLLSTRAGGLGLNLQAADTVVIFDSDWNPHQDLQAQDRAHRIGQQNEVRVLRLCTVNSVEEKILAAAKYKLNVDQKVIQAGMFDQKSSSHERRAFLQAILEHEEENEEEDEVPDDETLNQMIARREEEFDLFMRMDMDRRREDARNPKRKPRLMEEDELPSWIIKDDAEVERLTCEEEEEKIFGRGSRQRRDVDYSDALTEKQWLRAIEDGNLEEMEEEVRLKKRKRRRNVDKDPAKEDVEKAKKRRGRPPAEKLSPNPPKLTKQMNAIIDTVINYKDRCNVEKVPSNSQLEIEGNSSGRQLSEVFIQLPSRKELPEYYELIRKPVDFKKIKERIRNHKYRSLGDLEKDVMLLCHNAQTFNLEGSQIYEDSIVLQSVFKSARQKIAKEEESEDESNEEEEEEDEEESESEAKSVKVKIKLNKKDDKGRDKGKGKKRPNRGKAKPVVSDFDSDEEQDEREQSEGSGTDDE
Description: To establish subcutaneous tumours, mice were injected with 5 × 10^6 NCI-H1568 in PBS with 5% FCS or with 1 × 10^7 A549 cells in PBS with 5% FCS. Tumour diameters were measured with a caliper three times a week. The volume of each tumour (in mm^3) was calculated according to the formula [tumour volume = length × diameter^2 × π/6]. To monitor side effects of treatment, mice were inspected daily for abnormalities and body weight was determined daily after the start of treatment. Animals were sacrificed when the tumours reached a size of 1500 mm^3. Mice were randomised into treatment groups when the average tumour size reached ~210–220 mm^3. Group sizes were calculated individually for each tumour model based on tumour growth during model establishment experiments. A power analysis was performed using a sample size calculator (https://www.stat.ubc.ca/~rollin/stats/ssize/n2.html). For both models used in the study, 10 mice per group were used for each experiment. All administrations were dosed with 10 ml/kg (s.c. and oral). Control mice were dosed subcutaneously with 10% HP-β-CD in 50% Ringer solution and orally with 15% HP-β-CD, that means the control mouse treatment was corresponding to the solvent of the compounds. Compound 6 was dosed subcutaneously either in a d1-4 q3d, d6-8 q2d, d11-13 q2d treatment (Treatment 1) or a q3 or 4d treatment (Treatment 2).
Xenograft samples were fixed in 10% formaldehyde for 24 h and later moved to ethanol and embedded in paraffin. 2 µm-thick sections were cut using a microtome, then placed on glass slides ([…], silan printer slides PR-S:001), and subsequently dewaxed. SMARCA2 immunohistochemistry was carried out on the Leica BOND RX platform (Leica Biosystems) according to manufacturer’s instructions using a human-specific SMARCA2 antibody (Cell Signalling #11966 clone D9E8B RRID:AB_2797783 1:400) where the tissue underwent a heat-induced epitope retrieval for 20 min. After staining, the slides were cover-slipped with Shandon Consul-Mount glass covers, scanned using a slide scanner (3D HISTECH Ltd.). All slides were reviewed and evaluated for quality by a board-certified MD specialist in Anatomic Pathology (PC). Imaging analysis was performed using the digital pathology platform HALO (Indica Labs). A tissue-classifying algorithm was trained to selectively recognise viable tumour tissue against stroma, necrosis, and skin. The tissue classification output for each scan was reviewed and manually edited as necessary. A cell detection and scoring algorithm was trained to measure DAB optical density (OD) in the nuclei of tumour cells. A positivity threshold for DAB OD was determined by normalisation with respect to the DAB OD as calculated from bona fide negative tissue (e.g. murine stroma as background). The average, background-normalised DAB OD of tumour cell nuclei was used to quantitate SMARCA2 expression in each xenograft sample.

[2] = Cell viability assay (CellTiter Glo) in NCI-H1568; assay type: cell-based, human; conditions: human, NCI-H1568 cells, NCI-H1568; log10 conc -5.90309 mol/l
Summary of the method: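 NCI-H1568 cells, 500–2000 per well, were plated in 180–200 µl of medium in white 96-well plates with clear bottoms (Corning or Perkin Elmer). One day later a digital dispenser added the compounds, and a T0 reference sample was read. Viability was then determined by luminescence with CellTiter Glo or CellTiter Glo 2.0 (Promega).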

[3] = target: T1, PBRM1 (Homo sapiens, UniProt Q86U86); experiment: Western blot of PBRM1 degradation in NCI-H1568 cells; assay type: cell-based; conditions: SuppFig3b, per replicate
T1 construct: endogenous in cells; host or cells: NCI-H1568
T1 sequence (Q86U86 whole entry): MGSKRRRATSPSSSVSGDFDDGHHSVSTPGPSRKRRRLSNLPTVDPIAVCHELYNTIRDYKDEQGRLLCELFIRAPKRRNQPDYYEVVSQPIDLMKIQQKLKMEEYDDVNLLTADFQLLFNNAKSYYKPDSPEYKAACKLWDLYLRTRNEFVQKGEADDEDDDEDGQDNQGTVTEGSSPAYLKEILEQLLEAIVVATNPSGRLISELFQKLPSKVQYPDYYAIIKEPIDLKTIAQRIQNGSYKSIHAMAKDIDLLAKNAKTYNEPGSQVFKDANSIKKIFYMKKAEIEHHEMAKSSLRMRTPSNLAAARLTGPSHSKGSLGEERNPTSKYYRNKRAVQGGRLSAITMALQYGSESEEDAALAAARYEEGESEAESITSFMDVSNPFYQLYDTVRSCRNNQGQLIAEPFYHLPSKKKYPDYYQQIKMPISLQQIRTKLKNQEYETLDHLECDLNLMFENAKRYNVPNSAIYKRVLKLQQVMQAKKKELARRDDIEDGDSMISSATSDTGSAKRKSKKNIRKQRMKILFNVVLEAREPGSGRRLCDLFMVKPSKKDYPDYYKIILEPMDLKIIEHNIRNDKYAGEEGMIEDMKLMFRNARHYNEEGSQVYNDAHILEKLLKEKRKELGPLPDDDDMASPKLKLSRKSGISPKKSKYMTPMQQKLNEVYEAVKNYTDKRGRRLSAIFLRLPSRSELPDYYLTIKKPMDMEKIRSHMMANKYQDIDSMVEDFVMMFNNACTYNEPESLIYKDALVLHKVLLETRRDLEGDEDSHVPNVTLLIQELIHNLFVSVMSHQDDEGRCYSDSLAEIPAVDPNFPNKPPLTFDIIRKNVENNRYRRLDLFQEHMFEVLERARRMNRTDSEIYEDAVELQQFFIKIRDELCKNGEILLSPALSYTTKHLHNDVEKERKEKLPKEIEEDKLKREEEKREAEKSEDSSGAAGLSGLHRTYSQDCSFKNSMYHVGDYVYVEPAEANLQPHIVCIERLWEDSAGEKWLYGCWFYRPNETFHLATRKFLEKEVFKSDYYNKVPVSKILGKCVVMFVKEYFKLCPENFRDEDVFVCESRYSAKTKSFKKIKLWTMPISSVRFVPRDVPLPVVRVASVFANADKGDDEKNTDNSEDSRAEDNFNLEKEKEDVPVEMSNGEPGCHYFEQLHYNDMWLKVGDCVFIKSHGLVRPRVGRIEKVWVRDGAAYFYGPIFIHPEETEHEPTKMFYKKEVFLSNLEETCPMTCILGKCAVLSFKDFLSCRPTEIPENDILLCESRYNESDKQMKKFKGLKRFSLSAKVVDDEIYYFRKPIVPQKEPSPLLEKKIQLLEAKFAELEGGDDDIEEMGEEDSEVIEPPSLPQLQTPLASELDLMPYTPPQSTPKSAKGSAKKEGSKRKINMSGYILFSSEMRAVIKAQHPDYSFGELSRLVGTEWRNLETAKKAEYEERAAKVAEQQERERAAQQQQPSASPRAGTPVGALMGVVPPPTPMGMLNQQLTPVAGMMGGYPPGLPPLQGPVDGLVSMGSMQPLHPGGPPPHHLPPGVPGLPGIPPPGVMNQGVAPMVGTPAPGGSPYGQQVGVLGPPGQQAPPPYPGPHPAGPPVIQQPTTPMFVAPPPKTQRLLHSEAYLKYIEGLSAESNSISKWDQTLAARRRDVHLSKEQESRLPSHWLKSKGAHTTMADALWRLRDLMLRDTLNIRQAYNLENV
Description: Cells were seeded into 6-well plates 24 h before treatment. Next day, several wells were treated with compounds or DMSO as indicated, washed with PBS and lysed with lysis buffer (1% Triton X-100, 150 mM NaCl, 1 mM EDTA, 50 mM Tris pH 7.4, protease inhibitor cocktail (Roche), 50 units/mL benzonase nuclease (Sigma)). Lysates were cleared by centrifugation at 4 °C, at 15,800 × g for 10 min and the supernatants stored at −20 °C. Protein concentration was determined by BCA assay (Pierce) and the absorbance at 562 nm measured by spectrophotometry (NanoDrop ND1000). […] Western blot images were obtained through detection of SMARCA2 (Sigma #HPA029981 RRID:AB_10602406 1:1000), SMARCA4 (Abcam #ab108318 clone EPR3912 RRID:AB_10889900 1:1000), PBRM1 (Bethyl Laboratories #A301-591A RRID:AB_1078808 1:1000), β-actin (Cell Signalling #4970 clone 13E5 RRID:AB_2223172 1:2500) and GAPDH (Abcam #ab9485 RRID:AB_307275 1:2500) antibodies with IRDye 800CW donkey anti-rabbit secondary antibody (LI-COR #926-32213 RRID:AB_621848 1:10000) using a ChemiDoc MP imaging system (Bio-Rad). Western blots were quantified using Image Studio Lite (Licor, version 5.2) with normalisation to loading control and DMSO and further analysed using GraphPad Prism (version 9.2.0).

[4] = NCI-H1568 xenograft, 30 mg/kg po, qd, end of study, individual tumours, 30 mg/kg
[5] = NCI-H1568 xenograft, 100 mg/kg, PO, 48 h, individual tumours

Cc1ncsc1-c1ccc([C@H](CCCCCN2CCC(c3ccc4c(c3)n(C3CCCC3)c3nc(=O)c5c(Br)cccc5n43)CC2)NC(=O)[C@@H]2C[C@@H](O)CN2C(=O)[C@@H](NC(=O)C2(F)CC2)C(C)(C)C)cc1 [compound 11]
SMARCA2 levels in tumours at the end of the efficacy study, IHC ([1]; NCI-H1568 xenograft): undetectable by IHC in most treated tumour samples; also recorded: below the limit of detection | SMARCA2 (OD, normalised) [1, 4]: 0.00000 and 0.00917 | SMARCA2 Nuclear OD [1, 4]: 0.03172 and 0.04361 and 0.06213 and 0.0483 | median decrease of SMARCA2 levels in viable tumour tissue compared to vehicle ([1]; NCI-H1568 xenograft, 100 mg/kg p.o., 48 h after treatment): 89% | SMARCA2 (OD, normalised) ([1]; NCI-H1568 xenograft, 100 mg/kg po, qd, end of study, individual tumours): 0.00000 | SMARCA2 Nuclear OD ([1]; NCI-H1568 xenograft, 100 mg/kg po, qd, end of study, individual tumours, 100 mg/kg): 0.03159 and 0.03653 and 0.04664 and 0.03486 | Avg Stain 1 Nuclear OD (SMARCA2 IHC) [1, 5]: 7.84E-02 and 7.05E-02 and 6.17E-02 and 6.89E-02 | Normalised SMARCA2 (OD) [1, 5]: 0.04325 and 0.03531 and 0.02651 and 0.03377

Cc1ncsc1-c1ccc(C(CCC(C)CCN2CCC(c3ccc4c(c3)n(C3CCCC3)c3nc(=O)c5c(Br)cccc5n43)CC2)NC(=O)C2CC(O)CN2C(=O)C(NC(=O)C2(F)CC2)C(C)(C)C)cc1 (stereo not drawn) [ACBI2]
viability at 1.25 µM [2]: 0.898% | PBRM1 degradation, % DMSO ([3]; 1 nM): 23.1362 % DMSO and 79.6814 % DMSO and 32.6932 % DMSO | PBRM1 degradation, % DMSO ([3]; 10 nM): 3.304 % DMSO and 17.3996 % DMSO and 0.6905 % DMSO | PBRM1 degradation, % DMSO ([3]; 100 nM): 2.804 % DMSO and 11.7415 % DMSO and 30.9172 % DMSO | PBRM1 degradation, % DMSO ([3]; 1000 nM): 14.3896 % DMSO and 34.4025 % DMSO and 4.024 % DMSO | SMARCA2 (OD, normalised) ([1]; 5 mg/kg, 48h, background OD 0.03518 subtracted, individual tumours): 0.2432 and 0.2157 and 0.2065 and 0.129 and 0.1815 | SMARCA2 Nuclear OD ([1]; 5 mg/kg, 48h, individual tumours): 0.2784 and 0.2509 and 0.2416 and 0.1642 and 0.2166 | SMARCA2 (OD, normalised) ([1]; 20 mg/kg, 24h, background OD 0.03518 subtracted, individual tumours): 0.05875 and 0.05583 and 0.06456 and 0.06581 | SMARCA2 Nuclear OD ([1]; 20 mg/kg, 24h, individual tumours): 0.09393 and 0.09101 and 0.09973 and 0.101 | SMARCA2 (OD, normalised) ([1]; 20 mg/kg, 48h, background OD 0.03518 subtracted, individual tumours): 0.06607 and 0.09312 and 0.06031 and 0.01981 | SMARCA2 Nuclear OD ([1]; 20 mg/kg, 48h, individual tumours): 0.1013 and 0.1283 and 0.09549 and 0.05499 | SMARCA2 (OD, normalised) ([1]; 100 mg/kg, 48h, background OD 0.03518 subtracted, individual tumours): 0.01021 and 0.00729 and 0.00935 and 0.01389 and 0.01189 | SMARCA2 Nuclear OD ([1]; 100 mg/kg, 48h, individual tumours): 0.04539 and 0.04246 and 0.04453 and 0.04906 and 0.04706
